Measured values published in US9695155B2, “Herbicidal substituted pyrimidinyloxy benzene compounds” (E. I. DU PONT DE NEMOURS AND COMPANY, priority 2013, dated 2017).

Legend:
large (Lg) crabgrass = assay: Test A preemergence; type: in vivo, Digitaria sanguinalis
Procedure, shortened: (§1)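 Injury scores run from 0, no effect, to 100, complete control, judged by eye against untreated plants roughly 10 days after treatment. Chemicals carried a surfactant in a non-phytotoxic solvent and went onto loam–sand soil preemergence or onto one- to two-leaf seedlings postemergence.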

morningglory [1] = assay: Test A preemergence; type: in vivo, Ipomoea spp.
Procedure, shortened: as §1

velvetleaf = assay: Test A preemergence; type: in vivo, Abutilon theophrasti
Procedure, shortened: as §1

corn [2] = assay: Test A preemergence; type: in vivo, Zea mays
Procedure, shortened: as §1

barnyardgrass [3] = assay: Test A postemergence; type: in vivo, Echinochloa crus-galli
Procedure, shortened: as §1

wheat = assay: Test A postemergence; type: in vivo, Triticum aestivum; details: 0 to 100 scale where 0 is no effect and 100 is complete control
Procedure, shortened: as §1

rice = assay: Test B flooded paddy test; type: in vivo, Oryza sativa; details: Flood, 250 g ai/ha, 0 to 100 scale where 0 is no effect and 100 is complete control
Procedure, shortened: (§2)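 Visual ratings on a 0 to 100 scale, where 100 means complete control, compared treated plants with controls after 13 to 15 days in a greenhouse. Treatment went into paddy water 3 cm deep over the soil, applied to plants at the 2-leaf stage.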

sedge, umbrella = assay: Test B flooded paddy test; type: in vivo, Cyperus difformis; details: Flood, 250 g ai/ha, 0 to 100 scale where 0 is no effect and 100 is complete control
Procedure, shortened: as §2

Heteranthera limosa = assay: Test B flooded paddy test; type: in vivo; details: Flood, 250 g ai/ha, 0 to 100 scale where 0 is no effect and 100 is complete control
Procedure, shortened: as §2

barnyardgrass [4] = assay: Test B flooded paddy test; type: in vivo, Echinochloa crus-galli; details: Flood, 250 g ai/ha, 0 to 100 scale where 0 is no effect and 100 is complete control
Procedure, shortened: as §2

wheat, winter = assay: Test C postemergence; type: in vivo, Triticum aestivum; details: for Plant response rating (0 to 100), Wheat: 0 is no effect, 100 is complete control
Procedure, shortened: (§3)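 Greenhouse herbicide screen. Pre: seeded loam/sand, sprayed at planting. Post: 1–4 leaf plants (2–18 cm) in peat-based mix. Formulation: solvent mixture + surfactant, non-phytotoxic. Readout: visual % control vs untreated, 13–15 d; dash = not tested.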

corn [5] = assay: Test C postemergence; type: in vivo, Zea mays; details: for Plant response rating (0 to 100), Corn: 0 is no effect, 100 is complete control
Procedure, shortened: as §3

giant foxtail = assay: Test C postemergence; type: in vivo, Setaria faberii; details: for Plant response rating (0 to 100), Foxtail, Giant: 0 is no effect, 100 is complete control
Procedure, shortened: as §3

morningglory [6] = assay: Test C postemergence; type: in vivo, Ipomoea coccinea; details: for Plant response rating (0 to 100), Morningglory: 0 is no effect, 100 is complete control
Procedure, shortened: as §3

yellow nutsedge = assay: Test C postemergence; type: in vivo, Cyperus esculentus; details: for Plant response rating (0 to 100), Nutsedge, Yellow: 0 is no effect, 100 is complete control
Procedure, shortened: as §3

ragweed = assay: Test C postemergence; type: in vivo, Ambrosia elatior; details: for Plant response rating (0 to 100), Ragweed: 0 is no effect, 100 is complete control
Procedure, shortened: as §3

soybean = assay: Test C postemergence; type: in vivo, Glycine max; details: for Plant response rating (0 to 100), Soybean: 0 is no effect, 100 is complete control
Procedure, shortened: as §3

[7] = 125 g ai/ha, 0 to 100 scale where 0 is no effect and 100 is complete control
[8] = 500 g ai/ha, 0 to 100 scale where 0 is no effect and 100 is complete control
[9] = 31 g ai/ha, postemergence, visual rating, scale 0 to 100 (0 no effect, 100 complete control), 13 to 15 days
[10] = Postemergence, 62 g ai/ha, scale 0 to 100 (0 no effect, 100 complete control)

FC(F)c1cnn(-c2ccccc2Oc2ncc(Cl)cn2)c1 [Compound 80, 5-chloro-2-[2-[4-(difluoromethyl)-1H-pyrazol-1-yl]phenoxy]pyrimidine]
0%: Corn plant response rating (crop injury, 0 = no effect, 100 = complete kill) at 125 g/ha (corn [2]; Zea mays, pre-emergence, 240 h, 125 g ai/ha, 0 to 100 scale where 0 is no effect and 100 is complete control) | plant injury at 250 g/ha (rice; Oryza sativa, read-out: Plant response rating, Rice) | pest or weed control at 250 g/ha (barnyardgrass [4]; Echinochloa crus-galli, read-out: Plant response rating, Barnyardgrass) | plant injury at 31 g/ha (wheat, winter; Triticum aestivum, post-emergence, Postemergence, 31 g ai/ha, scale 0 to 100 (0 no effect, 100 complete control), 13 to 15 days, read-out: Plant response rating, Wheat) | plant injury at 16 g/ha (corn [5]; Zea mays, post-emergence, 16 g ai/ha, postemergence, visual rating, scale 0 to 100 (0 no effect, 100 complete control), 13 to 15 days, read-out: Corn plant response rating) | Corn plant response rating (crop injury, 0 = no effect, 100 = complete kill) at 31 g/ha (corn [5]; Zea mays, post-emergence, Postemergence, 31 g ai/ha, scale 0 to 100 (0 no effect, 100 complete control), 13 to 15 days) | pest or weed control at 16 g/ha (giant foxtail; Setaria faberi, post-emergence, 16 g ai/ha, postemergence, visual rating, scale 0 to 100 (0 no effect, 100 complete control), 13 to 15 days, read-out: Foxtail, Giant plant response rating)
75%: Soybean plant response rating (crop injury, 0-100 scale) at 62 g/ha (soybean; Glycine max, post-emergence, Postemergence, 62 g ai/ha, scale 0 to 100 (0 no effect, 100 complete control))
45%: pest or weed control at 125 g/ha (ragweed; Ambrosia artemisiifolia, post-emergence, 125 g ai/ha, postemergence, read-out: Plant response rating (0 to 100), Ragweed)
40%: plant injury at 500 g/ha (corn [2]; Zea mays, pre-emergence, 240 h, 500 g ai/ha, 0 to 100 scale, 0 no effect, 100 complete control, approx. 10 days, read-out: Corn plant response rating) | plant injury at 125 g/ha (wheat; Triticum aestivum, post-emergence, 240 h, 125 g ai/ha, read-out: Plant response rating, Wheat) | pest or weed control at 31 g/ha (ragweed; Ambrosia artemisiifolia, post-emergence, Postemergence, 31 g ai/ha, scale 0 to 100 (0 no effect, 100 complete control), 13 to 15 days, read-out: Plant response rating, Ragweed) | pest or weed control at 62 g/ha (ragweed; Ambrosia artemisiifolia, post-emergence, Postemergence, 62 g ai/ha, scale 0 to 100 (0 no effect, 100 complete control), read-out: Plant response rating, Ragweed)
90%: pest or weed control at 500 g/ha (velvetleaf; Abutilon theophrasti, pre-emergence, 240 h, 500 g ai/ha, 0 to 100 scale, 0 no effect, 100 complete control, approx. 10 days, read-out: Velvetleaf plant response rating)
60%: pest or weed control at 125 g/ha (morningglory [6]; Ipomoea, post-emergence, 125 g ai/ha, postemergence, read-out: Plant response rating (0 to 100), Morningglory) | pest or weed control at 62 g/ha (morningglory [6]; Ipomoea, post-emergence, Postemergence, 62 g ai/ha, scale 0 to 100 (0 no effect, 100 complete control), read-out: Plant response rating, Morningglory) | Soybean plant response rating (crop injury, 0-100 scale) at 31 g/ha (soybean; Glycine max, post-emergence, Postemergence, 31 g ai/ha, scale 0 to 100 (0 no effect, 100 complete control), 13 to 15 days)
10%: pest or weed control at 31 g/ha (morningglory [6]; Ipomoea, post-emergence, Postemergence, 31 g ai/ha, scale 0 to 100 (0 no effect, 100 complete control), 13 to 15 days, read-out: Plant response rating, Morningglory)
100%: pest or weed control at 125 g/ha (large (Lg) crabgrass; Digitaria sanguinalis, pre-emergence, 240 h, 125 g ai/ha, 0 to 100 scale where 0 is no effect and 100 is complete control, read-out: Plant response rating, Crabgrass, Large) | pest or weed control at 500 g/ha (large (Lg) crabgrass; Digitaria sanguinalis, pre-emergence, 240 h, 500 g ai/ha, 0 to 100 scale, 0 no effect, 100 complete control, approx. 10 days, read-out: Crabgrass, Large plant response rating) | pest or weed control at 500 g/ha (barnyardgrass [3]; Echinochloa crus-galli, post-emergence, 240 h, 500 g ai/ha, 0 to 100 scale, 0 no effect, 100 complete control, read-out: Plant response rating Barnyardgrass) | pest or weed control at 250 g/ha (Heteranthera limosa; Heteranthera limosa, read-out: Plant response rating, Ducksalad)
80: Plant response rating, Velvetleaf (velvetleaf; [7])
30: Plant response rating, Morningglory (morningglory [1]; [7])
80%: pest or weed control at 500 g/ha (morningglory [1]; Ipomoea, pre-emergence, 240 h, 500 g ai/ha, 0 to 100 scale, 0 no effect, 100 complete control, approx. 10 days, read-out: Morningglory plant response rating) | plant injury at 500 g/ha (wheat; Triticum aestivum, post-emergence, 240 h, 500 g ai/ha, read-out: Plant response rating, Wheat) | pest or weed control at 250 g/ha (sedge, umbrella; Cyperus difformis, read-out: Plant response rating, Sedge, Umbrella) | Soybean plant response rating (crop injury, 0-100 scale) at 125 g/ha (soybean; Glycine max, post-emergence, 125 g ai/ha, postemergence, read-out: Plant response rating (0 to 100), Soybean)
5%: plant injury at 62 g/ha (wheat, winter; Triticum aestivum, post-emergence, Postemergence, 62 g ai/ha, scale 0 to 100 (0 no effect, 100 complete control), read-out: Plant response rating, Wheat) | plant injury at 125 g/ha (corn [5]; Zea mays, post-emergence, 125 g ai/ha, postemergence, read-out: Plant response rating (0 to 100), Corn) | Corn plant response rating (crop injury, 0 = no effect, 100 = complete kill) at 62 g/ha (corn [5]; Zea mays, post-emergence, Postemergence, 62 g ai/ha, scale 0 to 100 (0 no effect, 100 complete control)) | pest or weed control at 125 g/ha (giant foxtail; Setaria faberi, post-emergence, 125 g ai/ha, postemergence, read-out: Plant response rating (0 to 100), Foxtail, Giant) | pest or weed control at 31 g/ha (giant foxtail; Setaria faberi, post-emergence, Postemergence, 31 g ai/ha, scale 0 to 100 (0 no effect, 100 complete control), 13 to 15 days, read-out: Plant response rating, Foxtail, Giant) | pest or weed control at 62 g/ha (giant foxtail; Setaria faberi, post-emergence, Postemergence, 62 g ai/ha, scale 0 to 100 (0 no effect, 100 complete control), read-out: Plant response rating, Foxtail, Giant) | pest or weed control at 125 g/ha (yellow nutsedge; Cyperus, post-emergence, 125 g ai/ha, postemergence, read-out: Plant response rating (0 to 100), Nutsedge, Yellow) | pest or weed control at 31 g/ha (yellow nutsedge; Cyperus, post-emergence, Postemergence, 31 g ai/ha, scale 0 to 100 (0 no effect, 100 complete control), 13 to 15 days, read-out: Plant response rating, Nutsedge, Yellow) | pest or weed control at 62 g/ha (yellow nutsedge; Cyperus, post-emergence, Postemergence, 62 g ai/ha, scale 0 to 100 (0 no effect, 100 complete control), read-out: Plant response rating, Nutsedge, Yellow)
30%: plant injury at 125 g/ha (wheat, winter; Triticum aestivum, post-emergence, 125 g ai/ha, postemergence, read-out: Plant response rating (0 to 100), Wheat)
70%: pest or weed control at 125 g/ha (barnyardgrass [3]; Echinochloa crus-galli, post-emergence, 240 h, 125 g ai/ha, 0 to 100 scale where 0 is no effect and 100 is complete control, read-out: Plant response rating, Barnyardgrass)

O=Cc1cccc(Oc2ncc(I)cn2)c1-n1cc(Br)cn1 [Compound 172]
5: Plant response rating, Foxtail, Giant (giant foxtail; [10]) | Nutsedge, Yellow plant response rating (yellow nutsedge; [9]) | Plant response rating, Nutsedge, Yellow (yellow nutsedge; [10]) | Plant response rating, Soybean (soybean; [10])
0: Plant response rating, Crabgrass, Large (large (Lg) crabgrass; [7]) | Morningglory plant response rating (0 to 100 scale) (morningglory [1]; 125 g ai/ha) | Morningglory plant response rating (morningglory [1]; [8]) | Velvetleaf plant response rating (0 to 100 scale) (velvetleaf; 125 g ai/ha) | Velvetleaf plant response rating (velvetleaf; [8]) | Plant response rating, Corn (corn [2]; [7]) | Corn plant response rating (corn [2]; [8]) | Wheat plant response rating (wheat; 125 g ai/ha) | Plant response rating, Wheat (wheat; 500 g ai/ha) | Plant response rating, Rice (rice) | Plant response rating, Sedge, Umbrella (sedge, umbrella) | Plant response rating, Ducksalad (Heteranthera limosa) | Plant response rating, Barnyardgrass (barnyardgrass [4]) | Plant response rating (0 to 100), Wheat (wheat, winter; 8 g ai/ha, postemergence) | Plant response rating (0 to 100), Wheat (wheat, winter; 16 g ai/ha, postemergence) | Wheat plant response rating (wheat, winter; [9]) | Plant response rating, Wheat (wheat, winter; [10]) | Plant response rating (0 to 100), Corn (corn [5]; 8 g ai/ha, postemergence) | Plant response rating (0 to 100), Corn (corn [5]; 16 g ai/ha, postemergence) | Corn plant response rating (corn [5]; [9]) | Plant response rating, Corn (corn [5]; [10]) | Plant response rating (0 to 100), Foxtail, Giant (giant foxtail; 8 g ai/ha, postemergence) | Foxtail, Giant plant response rating (giant foxtail; [9]) | Plant response rating (0 to 100), Morningglory (morningglory [6]; 8 g ai/ha, postemergence) | Plant response rating (0 to 100), Morningglory (morningglory [6]; 16 g ai/ha, postemergence) | Plant response rating (0 to 100), Nutsedge, Yellow (yellow nutsedge; 8 g ai/ha, postemergence) | Plant response rating (0 to 100), Nutsedge, Yellow (yellow nutsedge; 16 g ai/ha, postemergence) | Plant response rating (0 to 100), Ragweed (ragweed; 8 g ai/ha, postemergence) | Plant response rating (0 to 100), Ragweed (ragweed; 16 g ai/ha, postemergence) | Ragweed plant response rating (ragweed; [9]) | Plant response rating, Ragweed (ragweed; [10]) | Plant response rating (0 to 100), Soybean (soybean; 8 g ai/ha, postemergence) | Plant response rating (0 to 100), Soybean (soybean; 16 g ai/ha, postemergence) | Soybean plant response rating (soybean; [9])
30: Crabgrass, Large plant response rating (large (Lg) crabgrass; [8]) | Barnyardgrass plant response rating (barnyardgrass [3]; [7])
60: Plant response rating, Barnyardgrass (barnyardgrass [3]; [8])
20: Morningglory plant response rating (morningglory [6]; [9])
10: Plant response rating (0 to 100), Foxtail, Giant (giant foxtail; 16 g ai/ha, postemergence) | Plant response rating, Morningglory (morningglory [6]; [10])
